A value given as a limit tells only on which side of the number the result lay.

These results are taken from patent US10189813B2, “Formylated N-heterocyclic derivatives as FGFR4 inhibitors” (NOVARTIS AG, priority 2015, dated 2019).

For assay [1], the target named is T1, FGFR4 (GST-FGFR4(388-802)) (Homo sapiens, UniProt P22455).
T1 construct: GST-FGFR4(388-802); GST (N); made in house; host or cells: insect cells
Kind of assay: In-vitro biochemical kinase assay for FGFR4 (Caliper mobility shift). Conditions: 60 minutes at 30° C. As to the method: In-Vitro Biochemical Kinase Assays for FGFR4
All assays were performed in 384 well microtiter plates. Each assay plate contained 8-point serial dilutions for 40 test compounds, as well as four 8-point serial dilutions of staurosporine as reference compound, plus 16 high and 16 low controls.
(§1) Liquid handling and incubation steps were done on an Innovadyne Nanodrop Express equipped with a robotic arm (Thermo CatX, Caliper Twister II) and an incubator (Liconic STX40, Thermo Cytomat 2C450). The assay plates were prepared by addition of 50 nI per well of compound solution in 90% DMSO. […] Kinase reactions were incubated at 30° C. for 60 minutes and subsequently terminated by addition of 16 μl per well of stop solution (100 mM HEPES pH 7.5, 5% DMSO, 0.1% Caliper coating reagent, 10 mM EDTA, and 0.015% Brij35). Plates with terminated kinase reactions were transferred to the Caliper LC3000 workstations for reading. Phosphorylated and unphosphorylated peptides were separated using the Caliper microfluidic mobility shift technology. Briefly, samples from terminated kinase reactions were applied to the chip. Analytes are transported through the chip by constant buffer flow and the migration of the substrate peptide is monitored by the fluorescence signal of its label. Phosphorylated peptide (product) and unphosphorylated peptide (substrate) are separated in an electric field by their charge/mass ratio. Kinase activities were calculated from the amounts of formed phospho-peptide. IC50 values were determined from percent inhibition values at different compound concentrations by non-linear regression analysis.
Preparation of Compound Dilutions
Test compounds were dissolved in DMSO (10 mM) and transferred into 1.4 mL flat bottom or V-shaped Matrix tubes carrying a unique 2D matrix. The stock solutions were stored at […] if not used immediately. For the test procedure the vials were defrosted and identified by a scanner whereby a working sheet was generated that guided the subsequent working steps.
Compound dilutions were made in 96 well plates. This format enabled the assay of maximally 40 individual test compounds at 8 concentrations (single points) including 4 reference compounds. The dilution protocol included the production of “pre-dilution plates”, “master plates” and “assay plates”.
96 polypropylene well plates were used as pre-dilution plates. A total of 4 pre-dilution plates were prepared including 10 test compounds each on the plate positions A1-A10, one standard compound at A11 and one DMSO control at A12. All dilution steps were done on a HamiltonSTAR robot.
These plates were used directly for the assay which was performed in a total volume of 9.05 μL.

Assay [2] has as its system HuH-7 hepatocellular carcinoma cells. Description: Methylene blue staining proliferation assay (MBS). Type of assay: cell-based. Conditions: Homo sapiens, HuH-7 cells, 72 hours, read-out: HUH7 proliferation MBS. On the procedure:
Methylene Blue Staining Proliferation Assay (MBS):
The effect of compounds on cell proliferation is assessed using HuH-7 hepatocellular carcinoma cells obtained from the Japanese Collection of Research Bioresources Cell Bank (Cat# JCRB0403) and cultured in the vendor-recommended medium (DMEM high glucose (Amimed Cat#1-26F01-I), 10% foetal calf serum (Invitrogen Cat#16140-071), 1 mM sodium pyruvate (Amimed Cat#5-60F00-H), 1× Penicillin/Streptomycin (Amimed Cat#4-01F00-H)) at 37° C. in a humidified 5% CO2 incubator. […] 72 hours after compound addition, cells were fixed by adding 25 μL/well of 20% glutaraldehyde (Sigma Aldrich Cat# G400-4) and incubated for 10 minutes at room temperature. Cells were washed three times with H2O, 200 μL/well and stained with 100 μL/well 0.05% methylene blue (ABCR GmbH Cat# AB117904) for 10 minutes at room temperature. Cells were washed 3 times with H2O, 200 μL/well and then lysed by adding 200 μL/well of 3% HCl (Fluka Cat#84422) for 30 minutes at room temperature with shaking. Optical density was measured at A650 nm. The concentration of compound providing 50% of proliferation inhibition with respect to DMSO-treated cells was determined (IC50) using XLFit software.

Assay [3] has the same test system. Kind of assay: CellTiter Glo (CTG) proliferation/viability assay. Type of assay: cell-based. Conditions: Homo sapiens, Huh-7, 72 h, HuH-7 cells, 3 days, half-maximal growth inhibition (GI50), read-out: HUH7 proliferation CTG. As to the method:
CellTiter Glo (CTG) Assay:
The functional effect of compounds on cell proliferation is assessed using HuH-7 hepatocellular carcinoma cells obtained from the Japanese Collection of Research Bioresources Cell Bank (Cat# JCRB0403) and cultured in the vendor-recommended medium (DMEM high glucose (Amimed Cat#1-26F01-I), 10% foetal calf serum (Invitrogen Cat#16140-071), 1 mM sodium pyruvate (Amimed Cat#5-60F00-H), 1× Penicillin/Streptomycin (Amimed Cat#4-01F00-H)) at 37° C. in a humidified 5% CO2 incubator. Compound-mediated suppression of cell proliferation/viability is assessed by quantification of cellular ATP levels using the CellTiter-Glo (CTG) reagent (Promega, Cat# G7573). Briefly, cells are seeded at 3′000 cells/well/80 μl fresh medium into tissue-culture-treated 96-well plates (Costar Cat#3904), followed by addition of 20 μl medium containing compound dilutions at 5-fold their final intended concentration. Dose-response effects are assessed by 3-fold serial dilutions of the test compound, starting at 10 μM. Following incubation of the cells for 3 days at 37° C. and 5% CO2, the effect of inhibitors on cell viability is quantified following addition of 50 μl CTG and luminescence measurement (integration time: 500 ms) as per vendor manual, using a correspondingly equipped multi-mode plate reader (M200Pro, TECAN, Switzerland). For data analysis, the assay background value determined in wells containing medium, but no cells, is subtracted from all data points. To enable differentiation of cytotoxic from cytostatic compounds, the number of viable cells is assessed relative to that observed at the time of compound addition using a separate cell plate (day 0). The effect of a particular test compound concentration on cell proliferation/viability is expressed as percentage of the background- and day 0-corrected luminescence reading obtained for cells treated with vehicle only (DMSO, 0.1% f.c.), which is set as 100%, whereas the luminescence reading for wells containing medium only, but no cells, is set as −100%. Compound concentrations leading to half-maximal growth inhibition (GI50) are determined using standard four parameter curve fitting (XLfit 5.2., IDBS, UK).
In general terms: ATP-based viability assays read luminescence as a measure of living cells.

A further assay concerns the target T2, FGFR1 (407-822) (Homo sapiens, UniProt P11362).
T2 construct: FGFR1 (407-822)
Kind of assay: In vitro biochemical assay for FGFR1. As to the method:
as §1
(§2) In vitro biochemical assays for FGFR1 (407-822), FGFR2 (406-821) and FGFR3 (411-806) were conducted in a similar manner to the in vitro biochemical assay for FGFR4 described above, using the indicated portions of the kinase domains. The following examples all produced IC50 values >10000 nM in the biochemical FGFR1, FGFR2 and FGFR3 assays: 2, 3, 4, 11, 13, 16, 17, 18, 20, 28, 30.

Another assay deals with T3, FGFR2 (406-821) (Homo sapiens, UniProt P21802).
T3 construct: FGFR2 (406-821)
T3 sequence (P21802 406-821): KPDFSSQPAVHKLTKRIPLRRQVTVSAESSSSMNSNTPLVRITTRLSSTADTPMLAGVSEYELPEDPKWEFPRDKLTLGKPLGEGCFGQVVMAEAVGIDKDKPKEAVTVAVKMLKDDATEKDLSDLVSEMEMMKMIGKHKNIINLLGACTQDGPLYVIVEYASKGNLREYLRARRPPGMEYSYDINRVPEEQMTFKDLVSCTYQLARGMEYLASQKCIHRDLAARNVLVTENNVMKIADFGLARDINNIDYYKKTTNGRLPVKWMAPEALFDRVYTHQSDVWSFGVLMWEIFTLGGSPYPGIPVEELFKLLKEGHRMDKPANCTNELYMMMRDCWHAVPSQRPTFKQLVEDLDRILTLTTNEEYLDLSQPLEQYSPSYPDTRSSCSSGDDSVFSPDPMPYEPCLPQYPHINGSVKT
Kind of assay: In vitro biochemical assay for FGFR2. As to the method:
as §1, §2

In a further assay the target is T4, FGFR3 (411-806) (Homo sapiens, UniProt P22607).
T4 construct: FGFR3 (411-806)
T4 sequence (P22607 411-806): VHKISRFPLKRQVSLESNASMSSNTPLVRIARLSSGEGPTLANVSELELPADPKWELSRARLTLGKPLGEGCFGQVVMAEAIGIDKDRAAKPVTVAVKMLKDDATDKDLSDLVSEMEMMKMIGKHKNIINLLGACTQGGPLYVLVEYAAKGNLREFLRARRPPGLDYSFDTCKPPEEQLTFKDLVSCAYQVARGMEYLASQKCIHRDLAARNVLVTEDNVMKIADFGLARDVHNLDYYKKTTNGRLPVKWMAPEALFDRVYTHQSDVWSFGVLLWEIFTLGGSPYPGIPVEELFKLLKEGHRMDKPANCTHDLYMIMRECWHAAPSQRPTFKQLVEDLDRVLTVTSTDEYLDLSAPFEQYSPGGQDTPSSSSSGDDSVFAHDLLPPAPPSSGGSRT
Kind of assay: In vitro biochemical assay for FGFR3. On the procedure:
as §1, §2

In assay [4] the target is BaF3-Tel-FGFR4 cells (TEL fused to cytoplasmic domain of FGFR4) (Homo sapiens, UniProt P22455). Description: In vitro cellular kinase assay for FGFR4 (BaF3-Tel-FGFR4, MSD capture ELISA of tyrosine phosphorylation). Conditions: 1 hour incubation.
Sequence of BaF3-Tel-FGFR4 cells (TEL fused to cytoplasmic domain of FGFR4) (P22455 with tags, fused parts or gaps): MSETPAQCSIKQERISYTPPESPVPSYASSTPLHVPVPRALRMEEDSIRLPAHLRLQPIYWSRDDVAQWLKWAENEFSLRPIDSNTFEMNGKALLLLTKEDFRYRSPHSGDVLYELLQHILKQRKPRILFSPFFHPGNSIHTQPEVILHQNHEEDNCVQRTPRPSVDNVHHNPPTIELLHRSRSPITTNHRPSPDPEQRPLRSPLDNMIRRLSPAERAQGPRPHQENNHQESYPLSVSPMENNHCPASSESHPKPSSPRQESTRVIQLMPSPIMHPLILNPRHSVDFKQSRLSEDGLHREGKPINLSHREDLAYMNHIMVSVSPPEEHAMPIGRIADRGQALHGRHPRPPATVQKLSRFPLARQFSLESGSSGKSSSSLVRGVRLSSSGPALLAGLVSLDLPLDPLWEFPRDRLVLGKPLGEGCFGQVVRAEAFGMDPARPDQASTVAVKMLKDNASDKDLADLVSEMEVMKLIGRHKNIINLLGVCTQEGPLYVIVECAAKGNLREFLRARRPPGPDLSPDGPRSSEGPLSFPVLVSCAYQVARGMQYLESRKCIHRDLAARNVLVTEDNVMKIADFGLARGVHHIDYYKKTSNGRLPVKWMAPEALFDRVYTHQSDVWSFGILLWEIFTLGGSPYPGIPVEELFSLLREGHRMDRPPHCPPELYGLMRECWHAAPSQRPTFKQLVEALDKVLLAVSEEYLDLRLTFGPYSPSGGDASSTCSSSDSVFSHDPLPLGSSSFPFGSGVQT

T1 sequence (P22455 388-802): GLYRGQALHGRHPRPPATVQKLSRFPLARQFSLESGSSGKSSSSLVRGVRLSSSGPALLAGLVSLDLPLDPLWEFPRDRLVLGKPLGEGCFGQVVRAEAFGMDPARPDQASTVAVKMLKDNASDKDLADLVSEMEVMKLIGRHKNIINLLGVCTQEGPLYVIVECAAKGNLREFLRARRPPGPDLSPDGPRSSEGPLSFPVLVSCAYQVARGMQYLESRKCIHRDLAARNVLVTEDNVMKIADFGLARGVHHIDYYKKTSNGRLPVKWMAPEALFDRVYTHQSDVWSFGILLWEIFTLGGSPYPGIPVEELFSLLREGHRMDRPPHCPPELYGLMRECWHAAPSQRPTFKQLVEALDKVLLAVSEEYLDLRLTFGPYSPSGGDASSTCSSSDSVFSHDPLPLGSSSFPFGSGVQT
T2 sequence (P11362 407-822): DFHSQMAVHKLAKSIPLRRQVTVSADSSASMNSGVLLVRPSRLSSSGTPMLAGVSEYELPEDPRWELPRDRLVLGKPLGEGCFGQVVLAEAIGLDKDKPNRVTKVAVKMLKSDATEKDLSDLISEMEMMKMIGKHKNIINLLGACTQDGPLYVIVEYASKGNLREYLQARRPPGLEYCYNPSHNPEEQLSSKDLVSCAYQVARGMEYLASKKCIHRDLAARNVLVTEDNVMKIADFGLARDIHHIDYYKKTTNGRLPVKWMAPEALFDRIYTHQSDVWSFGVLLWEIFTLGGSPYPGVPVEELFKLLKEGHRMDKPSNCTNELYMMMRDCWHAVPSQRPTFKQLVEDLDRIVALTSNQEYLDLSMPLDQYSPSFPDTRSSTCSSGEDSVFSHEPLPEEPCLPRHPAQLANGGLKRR

On to `COCCNc1cc(NC(=O)N(C)c2ccc(C(F)F)c(C=O)n2)ncc1C#N` [Example 16, 3-(5-cyano-4-((2-methoxyethyl)amino)pyridin-2-yl)-1-(5-(difluoromethyl)-6-formylpyridin-2-yl)-1-methylurea], for which the IC50 in assay [1] was 2.7 nM; in assay [2], 51 nM; in assay [3] it was 90 nM; against FGFR1 (407-822) it was > 10000 nM; against FGFR2 (406-821) it was > 10000 nM; against FGFR3 (411-806) it was > 10000 nM. Besides, the IC50 in assay [4] turned out to be 7.7 nM.
Turning to `CC(C)Oc1cc(NC(=O)N(C)c2ccc(C(F)F)c(C=O)n2)ncc1C#N` [Example 18, 3-(5-cyano-4-isopropoxypyridin-2-yl)-1-(5-(difluoromethyl)-6-formylpyridin-2-yl)-1-methylurea], the IC50 in assay [1] is 1.9 nM; in assay [2] it was 191 nM; in assay [3], 463 nM; at FGFR1 (407-822), > 10000 nM; against FGFR2 (406-821), > 10000 nM; against FGFR3 (411-806) it was > 10000 nM. In assay [4], this compound yielded an IC50 of 25 nM.
